Test results as given in PubChem BioAssay (NCI).
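Test compounds were applied to cells in 96-well plates for 48 hours at 5 doses. GI50: concentration for 50% inhibition of growth. At the TGI there is no net growth.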

Columns and labels:
Experiment in all cases: growth of human tumour cells (NCI), 48 h
[1] = tested on: 786-0 renal
[2] = tested on: EKVX NSCLC
[3] = tested on: IGROV1 ovarian
[4] = tested on: HOP-92 NSCLC
[5] = tested on: A498 renal
[6] = tested on: SN12C renal
[7] = tested on: NCI-H522 lung
[8] = tested on: RXF 393 renal
[9] = tested on: SR leukemia

SMILES | TGI [1] [µM] | TGI [2] [µM] | TGI [3] [µM] | TGI [4] [µM] | TGI [5] [µM] | TGI [6] [µM] | TGI [7] [µM] | TGI [8] [µM] | GI50 [1] [µM] | GI50 [2] [µM] | GI50 [5] [µM] | GI50 [6] [µM] | GI50 [7] [µM] | GI50 [3] [µM] | GI50 [8] [µM] | GI50 [9] [µM] | TGI [9] [µM] | GI50 [4] [µM]
CC(C)(C)c1cc(CCC(=O)Nc2ccc(Cl)cc2)nc(NC#N)n1 | > 100 | > 100 | > 100 | > 100 | – | – | – | – | – | – | – | – | – | – | – | – | – | –
Cc1ccc(NC(=O)CC(=O)n2nc(C)c(N=Nc3ccccc3C(=O)O)c2C)cc1 | > 100 | > 100 | > 100 | – | > 100 | > 100 | > 100 | – | – | – | – | – | – | – | – | – | – | –
CCCC1N2CCCCC2[C@@H]2c3[nH]c4ccccc4c3CCN12 (stereo partly drawn) | > 100 | > 100 | > 100 | > 100 | > 100 | > 100 | – | > 100 | – | – | – | – | – | – | – | – | – | –
Cc1ccc(C(=O)NC(C)C)cc1-c1ccc(C(=O)NCC2CC2)cc1 | > 25 | > 25 | > 25 | – | > 25 | > 25 | > 25 | > 25 | > 25 | > 25 | > 25 | > 25 | > 25 | > 25 | > 25 | – | – | –
CN(C)CCNC(=O)c1cccc2ccc(-c3ccncc3)nc12 | 34.2 | 13.4 | 8.37 | 7.31 | 4.34 | 15.4 | – | 7.85 | – | – | – | – | – | – | – | – | – | –
CC/C=C\C[C@H](F)C/C=C1/C(=O)C=C[C@@H]1C/C=C\CCCC(=O)O | 13.3 | 25.1 | 32.1 | – | 11 | 20.5 | 10.9 | 10.2 | 7.24 | 7.59 | 5.59 | 7.01 | 4.58 | 9.97 | 5.19 | 1.04 | 7.49 | –
O=C(O)CCSC(=O)Nc1ccc([N+](=O)[O-])cc1 | > 100 | > 100 | > 100 | – | > 100 | > 100 | – | > 100 | – | – | – | – | – | – | – | – | > 100 | –
COc1ccc(NC(=O)CC(=O)N/N=C/c2ccc(N(CCC#N)S(C)(=O)=O)cc2)cc1 | > 100 | > 100 | > 100 | – | > 100 | > 100 | > 100 | > 100 | – | – | – | – | – | – | – | – | > 100 | –
O=C1CCC(N2C(=O)c3ccccc3C2=O)C(=O)N1CO (stereo not drawn) | > 100 | > 100 | > 100 | > 100 | > 100 | > 100 | > 100 | > 100 | > 100 | > 100 | > 100 | 73.7 | > 100 | 52.5 | 43 | – | – | 25
CCN(CC)C(c1ccc(N(C)C)cc1)C(c1ccc(N(C)C)cc1)N(CC)CC (stereo not drawn) | > 73 | > 73 | > 73 | 45.7 | > 73 | > 73 | > 7.3 | > 73 | – | – | – | – | – | – | – | – | – | –
COc1ccc2c(c1)[n+](=O)c(C(=O)C/C(=N/OCCCc1ccccc1)C(=O)NC13CC4CC(CC(C4)C1)C3)c(C)n2[O-] | > 100 | > 100 | > 100 | – | > 100 | > 100 | > 100 | – | – | – | – | – | – | – | – | – | > 100 | –
COc1ccc2nc3c(C(=O)NCCN(C)C)cccc3nc2c1 | > 100 | 15.7 | 93.5 | 24 | 7.54 | 22.5 | – | > 1 | – | – | – | – | – | – | – | – | – | –
CC(C)(CO)N1CCN(C(=S)Nc2ccccc2)CC1 | > 100 | > 100 | > 100 | > 100 | > 100 | > 100 | > 100 | > 100 | – | – | – | – | – | – | – | – | – | –
C/C(CC(=O)Nc1cc(C)ccc1C)=N\NC(=O)c1ccncc1 | > 100 | > 100 | > 100 | > 100 | – | – | > 100 | > 100 | – | – | – | – | – | – | – | – | – | –
Nc1c(-c2ccc(Cl)cc2)[n+]([O-])c2ccccc2[n+]1[O-] | > 100 | > 100 | > 100 | > 100 | > 100 | > 100 | 85.6 | – | – | – | – | – | – | – | – | – | – | –
O=C(CC1(O)C(=O)Nc2c(Cl)ccc(Cl)c21)c1ccc(F)cc1 (stereo not drawn) | > 100 | > 100 | – | 82.8 | – | > 100 | > 100 | 92.2 | – | – | – | – | – | – | – | – | – | –
C[C@@H]1OC(=O)N2CCCC(=C3SCCCS3)C12 (stereo partly drawn) | > 100 | > 100 | > 100 | 84.9 | > 100 | > 100 | > 100 | > 100 | – | – | – | – | – | – | – | – | – | –
C/C(O)=C(\N=O)C(=O)Nc1ccc(Cl)cc1Cl | > 100 | > 100 | > 100 | > 100 | > 100 | > 100 | > 100 | > 100 | – | – | – | – | – | – | – | – | – | –
CCOC(=O)/C(C#N)=C/c1[nH]c(C(=O)OCc2ccccc2)c(C)c1C | > 100 | > 100 | > 100 | > 100 | – | > 100 | > 100 | > 100 | – | – | – | – | – | – | – | – | – | –
COC1(OC)CC2OC1C1N=NN(C(=O)OC(C)(C)C)C21 (stereo not drawn) | > 100 | – | > 100 | > 100 | > 100 | > 100 | – | > 100 | – | – | – | – | – | – | – | – | – | –
